Measured values reported in article PMC8292346, “Dysfunction of the key ferroptosis-surveilling systems hypersensitizes mice to tubular necrosis during acute kidney injury” (Nature Communications, 2021).
“And” between values parts separate entries of the source, which are not always exact repeats. Equal values may be shown once.

How the values were obtained:
[1] = tested on: MLKL; test: Western blot of pMLKL (S358) in TSZ-treated HT29 cells; assay type: cell-based, human; conditions: Nec-1s 10 µM, Fer-1 1 µM, Nec-1f 10 µM
Description: (§1) To induce necroptosis in a human cell line, HT29 cells were stimulated at the indicated time points with 20 ng/ml human TNFα (Biolegend), 1 μM SMAC-mimetics (Birinapant, Chemietek), and 20 μM zVAD-fmk (Selleckchem, herein referred to as zVAD). For the induction of necroptosis in NIH3T3 cells, cells were incubated with 20 ng/ml TNF-α and 20 μM zVAD for indicated time points. […] Cells were seeded in six-well plates or petri dishes. […] After indicated time points, cells were collected and prepared for flow cytometry, immunoblotting, and/or LDH release assays.
Cells were lysed in ice-cold 10 mM Tris-HCl, pH 7.5, 50 mM NaCl, 1% Triton X-100, 30 mM sodium pyrophosphate, 50 mM NaF, 100 μM Na3VO4, 2 μM ZnCl2, and 1 mM phenylmethylsulfonyl fluoride (PMSF, modified Frackelton buffer) for 30 min on ice. Insoluble material was removed by centrifugation (14 000×g, 30 min, 4 °C). Protein concentration was determined using a commercial Bradford assay kit according to the manufacturer’s instructions (Thermo Fisher). Equal amounts of protein (typically 30 μg per lane) were resolved on a 4%−15% gradient SDS/PAGE gel and transferred to a PVDF membrane (BIO-RAD). Primary antibody incubation was performed for anti-pS166-RIPK1 (Cell Signaling, Cat# 65746, 1:1000 dilution), anti-pS358-MLKL, (Abcam, ab187091, 1:1000 dilution), anti-MLKL (Genetex, GTX107538, 1:1000 dilution) and anti-β-Actin (Cell Signaling, Cat# 3700S, 1:1000 dilution). Secondary antibodies (anti-mouse, HRP-linked antibody, Cell Signaling, Cat# 7076S; anti-rabbit, HRP-linked antibody, Cell Signaling, Cat# 7074S) were applied at concentrations of 1:5.000 (also see Supplementary Table 1 for details). Proteins were then visualized by enhanced chemiluminescence (ECL; Amersham Biosciences).

[2] = tested on: HT29 cells; test: TSZ-induced necroptosis, 7-AAD/annexin V flow cytometry; assay type: cell-based, human; conditions: Nec-1f 10 µM; for Protection against TSZ-induced necroptosis (7-AAD/annexin V, words): HT29, TSZ
Description: as §1
(§2) Cells were harvested and the pellets were washed twice in PBS and stained with 5 μl of 7-AAD (BD Biosciences) and 5 μl of annexin-V-FITC (BD Biosciences) added to 100 μl annexin-V binding buffer (BD Biosciences). After 15 min, cells were recorded on the LSRII with the FACS Diva 6.1.1 software (BD Biosciences) and subsequently analyzed with the FlowJo v10 software (Tree Star).

[3] = tested on: NIH3T3 cells; test: Ferroptosis inducers (FINs)/ferroptocide, 7-AAD/annexin V flow cytometry; assay type: cell-based, murine; conditions: alone (DMSO) or with Fer-1 1 µM, Nec-1s 30 µM, Nec-1f 30 µM
Description: as §1, §2

[4] = tested on: HT1080 cells; test: CellTiter-Glo luminescent cell viability assay (ATP), dose-response; assay type: cell-based, human
Description: Cells were plated in an opaque-walled 96-well plate and treatment with ferroptosis inducers and/or ferroptosis inhibitors was initiated 24 h later. […] Here, the reaction agent was directly added to the wells, mixed on an orbital shaker for 2 min, and then incubated at room temperature for 10 min. The luminescence was detected using a Promega GloMax® instrument.

[5] = tested on: CD10-135 cells; test: FINs/ferroptocide, LDH release assay; assay type: cell-based, human; set-up: LDH release: unit not given here; conditions: for LDH release: Nec-1f 30 µM
[6] = HT1080 + Erastin, inhibitor concentration 0.01 (unit not given)
[7] = HT1080 + Erastin, inhibitor concentration 0.1 (unit not given)
[8] = HT1080 + Erastin, inhibitor concentration 1 (unit not given)
[9] = HT1080 + Erastin, inhibitor concentration 10 (unit not given)
[10] = HT1080 + Erastin, inhibitor concentration 30 (unit not given)
[11] = HT1080 + Ferroptocide, inhibitor concentration 0.01 (unit not given)
[12] = HT1080 + RSL3, inhibitor concentration 0.01 (unit not given)
[13] = HT1080 + RSL3, inhibitor concentration 0.1 (unit not given)
[14] = HT1080 + RSL3, inhibitor concentration 1 (unit not given)
[15] = HT1080 + RSL3, inhibitor concentration 10 (unit not given)
[16] = CD10-135, FIN56 alone (FIN) or with Fer-1, Nec-1s
[17] = CD10-135, FINO2 alone (FIN) or with Fer-1, Nec-1s
[18] = CD10-135, RSL3 alone (FIN) or with Fer-1, Nec-1s
[19] = CD10-135, ferroptocide alone (FIN) or with Fer-1, Nec-1s

| SMILES | Phosphorylation of MLKL (pS358), western blot [1] | Protection against TSZ-induced necroptosis (7-AAD/annexin V, words) [2] | double-negative events (7-AAD/annexin V) ([3]; NIH3T3, 1.13 µM RSL3 6 h) | double-negative events (7-AAD/annexin V) ([3]; NIH3T3, 10 µM FIN56 24 h) | ATP luminescence (CellTiterGlo) [4, 6] [%] | ATP luminescence (CellTiterGlo) [4, 7] [%] | ATP luminescence (CellTiterGlo) [4, 8] [%] | ATP luminescence (CellTiterGlo) [4, 9] [%] | ATP luminescence (CellTiterGlo) [4, 10] [%] | ATP luminescence (CellTiterGlo) [4, 11] | ATP luminescence (CellTiterGlo) [4, 12] | ATP luminescence (CellTiterGlo) [4, 13] | ATP luminescence (CellTiterGlo) [4, 14] | ATP luminescence (CellTiterGlo) [4, 15] | LDH release [5, 16] | LDH release [5, 17] | LDH release [5, 18] | LDH release [5, 19] | Effect on FIN-induced LDH release ([5]; CD10-135 cells) | also measured |
| --- | --- | --- | --- | --- | --- | --- | --- | --- | --- | --- | --- | --- | --- | --- | --- | --- | --- | --- | --- | --- |
| CN1C(=O)C(Cc2c[nH]c3c(Cl)cccc23)NC1=S (centres unmarked) [Nec-1f] | prevented phosphorylation | maintained double negativity | 88.9% and 61.8% and 72.9% and 86.1% and 70.3% and 57.8% and 80.3% | 88.1% and 87.8% and 92.6% | 6.81 | 7.52 | 8.325 | 21.5066 | 111.285 | 1.591% and 1.035% | 48.1449% and 58.3128% | 48.8384% and 72.7198% | 51.482% and 85.4435% | 49.7032% and 98.9558% | 25.01 and 21.5704 and 29.6875 | 27.07 and 34.1078 and 34.3349 | 36.35 and 26.8291 | 89.05 and 90.3713 | reversed | 7-AAD/annexin V flow cytometry, source data of bar graph Fig2e ([2]; HT29, TSZ (TNFα 20 ng/ml, birinapant 1 µM, zVAD-fmk 20 µM) 16 h): 80.1% and 85.8% and 92.9% and 83.9% and 82.2% and 61.2% and 88.8% and 88.1%; ATP luminescence (CellTiterGlo) ([4]; HT1080 + Ferroptocide, inhibitor concentration 0.1 (unit not given)): 1.25% and 2.131%; ATP luminescence (CellTiterGlo) ([4]; HT1080 + Ferroptocide, inhibitor concentration 1 (unit not given)): 5.941% and 7.943%; ATP luminescence (CellTiterGlo) ([4]; HT1080 + Ferroptocide, inhibitor concentration 10 (unit not given)): 11.997% and 7.702%; ATP luminescence (CellTiterGlo) ([4]; HT1080 + RSL3, inhibitor concentration 30 (unit not given)): 46.9784% and 93.7693%; LDH release ([5]; CD10-135, erastin alone (FIN) or with Fer-1, Nec-1s): 25.13 and 17.5 and 32.5 |
| CCOC(=O)c1ccc(NC2CCCCC2)c(N)c1 [Fer-1, ferrostatin-1] | did not prevent MLKL-phosphorylation | did not provide protection against necroptosis | 90.9% and 88.3% and 95.7% and 97.7% and 79% | 94.7% and 91.5% and 96.4% | 8.302 | 100.351 | 97.0601 | 92.1314 | 88.0064 | 2.0385% and 1.258% | 46.842% and 51.9737% | 61.3859% and 117.078% | 60.0511% and 109.723% | 58.2722% and 113.348% | 8.38 and 8.509 and 10.9286 | 8.33 and 7.093 and 7.5109 | 6.44 and 3.43 | 30.26 and 29.1563 | reversed | double-negative events (7-AAD/annexin V) ([3]; NIH3T3, 5 µM erastin 24 h): 93.3% and 78.4% and 95.1% and 95.2%; double-negative events (7-AAD/annexin V) ([3]; NIH3T3, 10 µM FINO2 24 h): 79% and 79.9% and 82.9% and 91%; Effect on the phenotype induced by ferroptocide ([5]; CD10-135 cells): reversed the phenotype |
